{"source": "ChEMBL document CHEMBL3044947", "about": "“Isolation of an insecticidal compound oxalicine B from Penicillium sp. TAMA 71 and confirmation of its chemical structure by X-ray crystallographic analysis” (2007)", "key": {"[1]": {"test_system": "Frankliniella occidentalis", "experiment": "Insecticidal activity against Frankliniella occidentalis (western flower thrips) assessed as insect mortality at 500 ppm", "type": "functional"}, "[2]": {"test_system": "Botrytis cinerea", "experiment": "Fungicidal activity against Botryotinia fuckeliana at 500 ppm", "type": "functional, organism-based"}, "[3]": {"test_system": "Podosphaera fuliginea", "experiment": "Fungicidal activity against Podosphaera fuliginea at 500 ppm", "type": "functional, organism-based"}, "[4]": {"test_system": "Tetranychus urticae", "experiment": "Miticidal activity against Tetranychus urticae (two-spotted spider mite) assessed as insect mortality at 500 ppm", "type": "functional, organism-based"}, "[5]": {"test_system": "Bemisia argentifolii", "experiment": "Insecticidal activity against Bemisia argentifolii assessed as insect mortality at 500 ppm", "type": "functional, organism-based"}, "[6]": {"test_system": "Frankliniella occidentalis", "experiment": "Antifeedant activity against Frankliniella occidentalis (western flower thrips) at 500 ppm", "type": "functional, organism-based"}, "[7]": {"test_system": "Myzus persicae", "experiment": "Insecticidal activity against Myzus persicae (green peach aphid) assessed as insect mortality at 100 ppm", "type": "functional"}, "[8]": {"test_system": "Plutella xylostella", "experiment": "Insecticidal activity against Plutella xylostella (diamondback moth) assessed as insect mortality at 500 ppm", "type": "functional, organism-based"}, "[9]": {"test_system": "Myzus persicae", "experiment": "Insecticidal activity against Myzus persicae (green peach aphid) assessed as insect mortality at 200 ppm", "type": "functional"}}, "note": "Activity calls are given as the source filed them. The calls are words filed in the database; no cut-off is given here.", "data": [{"smiles": "C=C(C)[C@]1(O)CC[C@]2(C)[C@H](CC=C(C)[C@]23Oc2cc(-c4cccnc4)oc(=O)c2[C@@H]3O)[C@@]12CCC(=O)OC2", "note": "[OXALICINE B]", "values": [{"measurement": "mortality at 500 ppm", "setting": "[1]", "result": 32, "unit": "%"}, {"measurement": "Activity", "setting": "[2]", "result": "inactive"}, {"measurement": "Activity", "setting": "[3]", "result": "inactive"}, {"measurement": "Activity", "setting": "[4]", "result": "inactive"}, {"measurement": "Activity", "setting": "[5]", "result": "inactive"}, {"measurement": "Activity", "setting": "[6]", "result": "inactive"}, {"measurement": "mortality at 100 ppm", "setting": "[7]", "result": 82, "unit": "%"}, {"measurement": "Activity", "setting": "[8]", "result": "inactive"}, {"measurement": "mortality at 200 ppm", "setting": "[9]", "result": 87, "unit": "%"}]}]}
